Reference: patent publication US7858796B2, “Chemical compounds” (Glaxo Group Limited, priority 2004, dated 2010)

What follows are compounds tested on human monocyte stimulated cytokine production (TNF-α) (assay: Monocyte Assay (LPS-stimulated TNF-α production)). Details: human CD14+ monocytes, 200 ng/mL LPS, 24 hrs, TNF-α by ELISA.
Format: cell-based
Description: Effect of IKK-β inhibition on human monocyte stimulated cytokine production was assessed as follows: Monocytes were isolated from heparinized whole blood by Ficoll gradient, followed by purification of CD14+ cells using MACS magnetic cell separation beads. Isolated monocytes were then adhered to 96-well culture plates at 1×10^6 cells/mL in RPMI 1640 10% FBS (JRH Biosciences, Lenexa Kans.) for 2 h. to further enrich the monocyte population. The media was then removed, cells washed once with RPMI 1640, and 0.125 mL RPMI 1640 10% FBS was added to the wells. Test compounds are added to the wells 30 minutes prior to stimulation with a final vehicle concentration of 0.1% DMSO. Monocytes were activated by the addition of 200 ng/mL endotoxin (LPS; E. coli serotype 026:B6) (Sigma, St. Louis, Mo.) and incubated for 24 hrs at 37 C. Cell-free supernates were analyzed by ELISA for TNF-α using Pharmingen matched pair Abs. Viability of the cells was determined by10% trypan blue exclusion.

IC50 [µM]	SMILES
< 10	NC(=O)c1cc(-c2ccccc2)cc2c(C3CCN(S(=O)(=O)CCOCC4CCOC4)CC3)c[nH]c12 (stereo not shown) [Example 200]
< 10	CC(C)(C)OC(=O)N1CCC(NCCCS(=O)(=O)N2CCC(c3c[nH]c4c(C(N)=O)cc(-c5ccccc5)cc34)CC2)CC1 [Example 108, 1,1-dimethylethyl 4-{[3-({4-[7-(aminocarbonyl)-5-phenyl-1H-indol-3-yl]-1-piperidinyl}sulfonyl)propyl]amino}-1-piperidinecarboxylate]
< 10	COCCCS(=O)(=O)N1CCC(c2c[nH]c3c(C(N)=O)cc(-c4ccccc4)cc23)CC1 [Example 160, 3-(1-{[3-(methyloxy)propyl]sulfonyl}-4-piperidinyl)-5-phenyl-1H-indole-7-carboxamide]
< 10	NC(=O)c1cc(-c2cccs2)cc2c(C3CCN(S(=O)(=O)CCCO)CC3)c[nH]c12 [Example 265, 3-{1-[(3-hydroxypropyl)sulfonyl]-4-piperidinyl}-5-(2-thienyl)-1H-indole-7-carboxamide]

These compounds were tested against T1, Recombinant human IKKβ (residues 1-737) (Homo sapiens, UniProt O14920) (assay: IKK2 Assay (TR-FRET)). Details: IKK2 5 nM, GST-IκBα 25 nM, ATP 1 μM, 30 minutes at room temperature, read-out: pIC50 against IKK2 (converted).
T1 construct: Recombinant human IKKβ (residues 1-737); GST (C); made in house
T1 sequence (O14920 1-737): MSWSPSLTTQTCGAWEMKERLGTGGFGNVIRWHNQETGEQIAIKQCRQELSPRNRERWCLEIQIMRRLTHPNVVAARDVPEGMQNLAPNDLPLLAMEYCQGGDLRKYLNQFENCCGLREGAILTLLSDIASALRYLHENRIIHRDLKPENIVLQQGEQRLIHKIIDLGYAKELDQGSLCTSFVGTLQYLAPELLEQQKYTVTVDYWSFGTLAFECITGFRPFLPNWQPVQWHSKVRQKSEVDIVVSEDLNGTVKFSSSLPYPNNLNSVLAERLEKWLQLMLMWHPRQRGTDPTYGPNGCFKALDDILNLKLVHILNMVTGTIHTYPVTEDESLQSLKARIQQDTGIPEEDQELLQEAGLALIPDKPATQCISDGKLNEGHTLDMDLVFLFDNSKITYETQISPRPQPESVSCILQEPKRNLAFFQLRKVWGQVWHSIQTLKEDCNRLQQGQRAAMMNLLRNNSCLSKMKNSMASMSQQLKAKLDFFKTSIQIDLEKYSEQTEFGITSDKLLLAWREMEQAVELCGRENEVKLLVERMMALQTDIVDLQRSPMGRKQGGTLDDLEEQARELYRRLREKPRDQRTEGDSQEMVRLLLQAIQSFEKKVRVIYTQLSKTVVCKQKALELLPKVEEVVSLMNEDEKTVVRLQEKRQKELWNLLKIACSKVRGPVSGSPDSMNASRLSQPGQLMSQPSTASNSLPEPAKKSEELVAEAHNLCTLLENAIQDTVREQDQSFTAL
Format: biochemical
Description: Recombinant human IKKβ (residues 1-737) was expressed in baculovirus as a C-terminal GST-tagged fusion protein, and its activity was assessed using a time-resolved fluorescence resonance energy transfer (TR-FRET) assay. Briefly, IKK2 (5 nM final) diluted in assay buffer (50 mM HEPES, 10 mM MgCl2, 1 mM CHAPS pH 7.4 with 1 mM DTT and 0.01% w/v BSA) was added to wells containing various concentrations of compound or DMSO vehicle (3% final). The reaction was initiated by the addition of GST-IκBα substrate (25 nM final)/ATP (1 μM final), in a total volume of 30 μl. The reaction was incubated for 30 minutes at room temperature, then terminated by the addition of 15 μl of 50 mM EDTA. Detection reagent (15 μl) in buffer (100 mM HEPES pH 7.4, 150 mM NaCl and 0.1% w/v BSA) containing antiphosphoserine-IκBα-32/36 monoclonal antibody 12C2 (Cell Signalling Technology, Beverly Mass., USA) labelled with W-1024 europium chelate (Wallac OY, Turku, Finland), and an APC-labelled anti-GST antibody (Prozyme, San Leandro, Calif., USA) was added and the reaction was further incubated for 60 minutes at room temperature. The degree of phosphorylation of GST-IκBα was measured using a Packard Discovery plate reader (Perkin-Elmer Life Sciences, Pangbourne, UK) as a ratio of specific 665 nm energy transfer signal to reference europium 620 nm signal.

IC50 [µM]	SMILES
≤ 10	NC(=O)c1cc(-c2ccccc2)cc2c(C3CCN(S(=O)(=O)CCNCC4CCCCC4)CC3)c[nH]c12 [Example 38]
> 25.1	COCCCS(=O)(=O)N1CCC(c2c[nH]c3c(C(N)=O)cc(-c4cccc(CNCCN5CCCCC5)c4)cc23)CC1 [Example 249]
≤ 10	NC(=O)c1cc(-c2ccccc2)cc2c(C3CCN(S(=O)(=O)CCOCC4CCOC4)CC3)c[nH]c12 (stereo not shown) [Example 200]
